Measured values from ChEMBL document CHEMBL4417631, “Oral peptide inhibitors of interleukin-23 receptor and their use to treat inflammatory bowel diseases” (2017).
Where a SMILES comes first, the peptide text is derived from it.

Target: T1, Interleukin-23 receptor (Homo sapiens, UniProt Q5VWK5)
T1 sequence (Q5VWK5 whole entry): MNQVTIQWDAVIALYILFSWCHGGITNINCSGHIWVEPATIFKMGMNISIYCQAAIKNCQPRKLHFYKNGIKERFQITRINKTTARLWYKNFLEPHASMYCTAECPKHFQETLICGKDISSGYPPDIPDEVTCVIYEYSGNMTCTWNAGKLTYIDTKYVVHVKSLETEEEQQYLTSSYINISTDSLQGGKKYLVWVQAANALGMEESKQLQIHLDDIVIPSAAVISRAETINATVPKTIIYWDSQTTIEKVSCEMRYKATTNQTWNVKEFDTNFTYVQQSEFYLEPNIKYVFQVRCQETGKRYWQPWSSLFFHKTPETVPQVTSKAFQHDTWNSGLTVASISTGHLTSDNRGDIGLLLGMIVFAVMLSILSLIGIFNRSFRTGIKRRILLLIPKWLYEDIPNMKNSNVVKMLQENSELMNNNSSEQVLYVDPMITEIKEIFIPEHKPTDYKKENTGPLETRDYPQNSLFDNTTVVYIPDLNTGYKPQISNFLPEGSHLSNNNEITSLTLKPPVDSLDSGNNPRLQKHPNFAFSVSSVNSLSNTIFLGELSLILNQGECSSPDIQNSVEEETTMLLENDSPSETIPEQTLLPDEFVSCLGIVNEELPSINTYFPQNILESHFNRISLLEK
Test: Inhibition of interleukin-23 binding to human interleukin-23 receptor incubated for 2 hrs by competitive binding ELISA

IC50 | Molecule
> 1 µM | CC(C)[C@H](NC(=O)[C@H](Cc1c[nH]c2ccccc12)NC(=O)[C@@H](NC(=O)[C@H](CCC(N)=O)NC(=O)[C@@H](N)CS)[C@@H](C)O)C(=O)N[C@@H](CS)C(=O)N[C@@H](Cc1ccc(O)cc1)C(=O)N[C@@H](Cc1c[nH]c2ccccc12)C(=O)N[C@@H](Cc1cnc[nH]1)C(=O)N[C@H](C(=O)N[C@@H](Cc1ccc(O)cc1)C(=O)NCC(N)=O)[C@@H](C)O (H-CQTWVCYWHTYG-NH2)
> 1 µM | CC(C)[C@H](NC(=O)[C@H](Cc1cnc[nH]1)NC(=O)[C@H](Cc1c[nH]c2ccccc12)NC(=O)[C@H](Cc1ccc(O)cc1)NC(=O)[C@H](CS)NC(=O)[C@H](CCCNC(=N)N)NC(=O)[C@H](Cc1c[nH]c2ccccc12)NC(=O)[C@H](CC(=O)O)NC(=O)[C@H](CO)NC(=O)[C@@H](N)CS)C(=O)N[C@@H](Cc1ccccc1)C(=O)NCC(N)=O (H-CSDWRCYWHVFG-NH2)
< 0.5 µM | CC(=O)N[C@@H](CS)C(=O)N[C@@H](C)C(=O)N[C@@H](CC(=O)O)C(=O)N[C@@H](Cc1c[nH]c2ccccc12)C(=O)N[C@H](C(=O)N[C@@H](CS)C(=O)N[C@@H](Cc1ccc(O)cc1)C(=O)N[C@@H](Cc1c[nH]c2ccccc12)C(=O)N[C@@H](Cc1cnc[nH]1)C(=O)N[C@@H](CCCNC(=N)N)C(=O)N[C@@H](Cc1cnc[nH]1)C(=O)N[C@@H](C)C(=O)N[C@@H](CC(=O)O)C(=O)N[C@@H](CCCNC(=N)N)C(=O)N[C@H](C(=O)N[C@@H](CCCCN)C(N)=O)C(C)C)C(C)C (Ac-CADWVCYWHRHADRVK-NH2)
> 1 µM | CC(C)[C@H](NC(=O)[C@H](Cc1c[nH]c2ccccc12)NC(=O)[C@H](CC(=O)O)NC(=O)[C@H](C)NC(=O)[C@@H](N)CS)C(=O)N[C@@H](CS)C(=O)N[C@@H](Cc1ccc(O)cc1)C(=O)N[C@@H](Cc1cccc2ccccc12)C(=O)N[C@@H](Cc1cnc[nH]1)C(=O)N[C@H](C(=O)N[C@@H](Cc1ccccc1)C(=O)O)[C@@H](C)O
> 10 µM | CC(=O)NCCCC[C@H](NC(=O)[C@](C)(CCCCN)NC(=O)[C@H](Cc1ccc2ccccc2c1)NC(=O)[C@@H](NC(=O)[C@H](CCC(N)=O)NC(=O)[C@H](Cc1c[nH]c2ccccc12)NC(=O)[C@@H](NC(=O)[C@H](CCC(N)=O)NC(=O)[C@@H](NC(C)=O)C(C)(C)S)[C@@H](C)O)C(C)(C)S)C(=O)N[C@@H](CC(N)=O)C(=O)NCC(N)=O
> 30 µM | CC(=O)N[C@@H](CS)C(=O)N[C@@H](CCC(N)=O)C(=O)N[C@H](C(=O)N[C@@H](Cc1c[nH]c2ccccc12)C(=O)N[C@@H](CCC(N)=O)C(=O)N[C@@H](CS)C(=O)N1Cc2ccccc2C[C@H]1C(=O)N[C@@H](Cc1c[nH]c2ccccc12)C(=O)N[C@@H](CCC(C)C)C(=O)N[C@@H](CCC(=O)O)C(=O)N[C@@H](CC(N)=O)C(=O)NCC(N)=O)[C@@H](C)O
0.5 to 1 µM | CC(C)[C@H](NC(=O)[C@H](Cc1cnc[nH]1)NC(=O)[C@H](Cc1c[nH]c2ccccc12)NC(=O)[C@H](Cc1ccc(O)cc1)NC(=O)[C@H](CS)NC(=O)[C@@H](NC(=O)[C@H](Cc1c[nH]c2ccccc12)NC(=O)[C@@H](NC(=O)[C@H](CCCNC(=N)N)NC(=O)[C@@H](N)CS)[C@@H](C)O)[C@@H](C)O)C(=O)N[C@@H](Cc1ccc(O)cc1)C(=O)NCC(N)=O (H-CRTWTCYWHVYG-NH2)
1 to 10 µM | CC(=O)N[C@@H](CS)C(=O)N[C@@H](C)C(=O)N[C@@H](CC(=O)O)C(=O)N[C@@H](Cc1c[nH]c2ccccc12)C(=O)N[C@H](C(=O)N[C@@H](CS)C(=O)N[C@@H](Cc1ccc(O)cc1)C(=O)N[C@@H](Cc1c[nH]c2ccccc12)C(=O)N[C@@H](Cc1cnc[nH]1)C(=O)N[C@H](C(=O)N[C@@H](CCCCNC(=O)COCC(=O)NCCCC[C@H](NC(=O)[C@@H](NC(=O)[C@H](Cc1cnc[nH]1)NC(=O)[C@H](Cc1c[nH]c2ccccc12)NC(=O)[C@H](Cc1ccc(O)cc1)NC(=O)[C@H](CS)NC(=O)[C@@H](NC(=O)[C@H](Cc1c[nH]c2ccccc12)NC(=O)[C@H](CC(=O)O)NC(=O)[C@H](C)NC(=O)[C@H](CS)NC(C)=O)C(C)C)[C@@H](C)O)C(=O)NCC(=O)O)C(=O)NCC(=O)O)[C@@H](C)O)C(C)C
> 10 µM | CC(=O)N[C@@H](CS)C(=O)N[C@@H](C)C(=O)N[C@@H](CC(=O)O)C(=O)N[C@@H](Cc1c[nH]c2ccccc12)C(=O)N[C@H](C(=O)N[C@@H](CS)C(=O)N[C@@H](Cc1ccc(O)cc1)C(=O)N[C@@H](Cc1c[nH]c2ccccc12)C(=O)N[C@@H](Cc1cnc[nH]1)C(=O)N[C@@H](CCCCNC(=O)COCC(=O)NCCCC[C@H](NC(=O)[C@H](Cc1cnc[nH]1)NC(=O)[C@H](Cc1c[nH]c2ccccc12)NC(=O)[C@H](Cc1ccc(O)cc1)NC(=O)[C@H](CS)NC(=O)[C@@H](NC(=O)[C@H](Cc1c[nH]c2ccccc12)NC(=O)[C@H](CC(=O)O)NC(=O)[C@H](C)NC(=O)[C@H](CS)NC(C)=O)C(C)C)C(=O)N[C@@H](Cc1ccccc1)C(=O)NCC(=O)O)C(=O)N[C@@H](Cc1ccccc1)C(=O)NCC(=O)O)C(C)C
> 1 µM | CC(=O)N[C@@H](CS)C(=O)N[C@@H](C)C(=O)N[C@@H](CC(=O)O)C(=O)N[C@@H](Cc1c[nH]c2ccccc12)C(=O)N[C@H](C(=O)N[C@@H](CS)C(=O)N[C@@H](Cc1ccc(O)cc1)C(=O)N[C@@H](Cc1c[nH]c2ccccc12)C(=O)N(C)[C@@H](Cc1cnc[nH]1)C(=O)N[C@H](C(=O)N[C@@H](Cc1ccccc1)C(=O)NCC(=O)NCCOCC(=O)N[C@H](CCCCN)C(N)=O)[C@@H](C)O)C(C)C
< 0.5 µM | CC(=O)N[C@@H](CS)C(=O)N[C@@H](CCC(N)=O)C(=O)N[C@H](C(=O)N[C@@H](Cc1c[nH]c2ccccc12)C(=O)N[C@@H](CCC(N)=O)C(=O)N[C@@H](CS)C(=O)N[C@@H](Cc1ccc(O)cc1)C(=O)N[C@@H](Cc1c[nH]c2ccccc12)C(=O)N[C@@H](CCCNC(=N)N)C(=O)N[C@@H](CCC(=O)O)C(=O)N[C@@H](CC(N)=O)C(=O)NCC(N)=O)[C@@H](C)O (Ac-CQTWQCYWRENG-NH2)
> 1 µM | CC(=O)N[C@@H](CS)C(=O)N[C@@H](C)C(=O)N[C@@H](CC(=O)O)C(=O)N[C@@H](Cc1c[nH]c2ccccc12)C(=O)N[C@H](C(=O)N[C@@H](CS)C(=O)N[C@@H](Cc1ccc(O)cc1)C(=O)N[C@@H](Cc1c[nH]c2ccccc12)C(=O)N[C@@H](Cc1cnc[nH]1)C(=O)N[C@H](C(=O)N[C@@H](Cc1ccccc1)C(=O)N[C@H](CCCCN)C(=O)O)[C@@H](C)O)C(C)C
6 µM | CC(=O)N[C@@H](CS)C(=O)N[C@@H](CCC(N)=O)C(=O)N[C@H](C(=O)N[C@@H](Cc1c[nH]c2ccccc12)C(=O)N[C@@H](CCC(N)=O)C(=O)N[C@@H](CS)C(=O)N[C@@H](Cc1ccc(O)cc1)C(=O)N[C@@](C)(Cc1c[nH]c2ccccc12)C(=O)N[C@@H](CCCNC(=N)N)C(=O)N[C@H](C(=O)N[C@@H](CC(N)=O)C(=O)NCC(=O)NCCC(=O)N[C@H](CCCCN)C(N)=O)C(C)C)[C@@H](C)O
6 µM | CC(=O)N[C@@H](CS)C(=O)N[C@@H](C)C(=O)N[C@@H](CC(=O)O)C(=O)N[C@@H](Cc1c[nH]c2ccccc12)C(=O)N[C@H](C(=O)N[C@@H](CS)C(=O)N[C@@H](Cc1ccc(O)cc1)C(=O)N[C@H](CC(=O)N[C@@H](CCCN)C(=O)N[C@@H](CN)C(=O)N[C@@H](Cc1ccccc1)C(=O)NCC(=O)NCCOCC(=O)N[C@H](CCCCN)C(N)=O)Cc1c[nH]c2ccccc12)C(C)C
< 0.5 µM | CC(=O)N[C@@H](CS)C(=O)N[C@@H](CCCNC(=N)N)C(=O)N[C@@H](CC(=O)O)C(=O)N[C@@H](Cc1c[nH]c2ccccc12)C(=O)N[C@@H](CCC(N)=O)C(=O)N[C@@H](CS)C(=O)N[C@@H](Cc1ccc(O)cc1)C(=O)N[C@@H](Cc1c[nH]c2ccccc12)C(=O)N[C@@H](Cc1cnc[nH]1)C(=O)N[C@@H](CCCCN)C(=O)N[C@@H](Cc1ccccc1)C(=O)NCC(=O)NCCOCCC(=O)N[C@H](CCCCN)C(=O)O
> 1 µM | CC(=O)N[C@@H](CS)C(=O)N[C@@H](CCC(N)=O)C(=O)N[C@H](C(=O)N[C@@H](Cc1c[nH]c2ccccc12)C(=O)N[C@@H](CCC(N)=O)C(=O)N[C@@H](CS)C(=O)N[C@@H](Cc1ccc(O)cc1)C(=O)N[C@@H](Cc1c[nH]c2ccccc12)C(=O)N[C@@H](CCCNC(=N)N)C(=O)N(C)[C@@H](CCCCN)C(=O)N[C@@H](CC(N)=O)C(=O)NCC(=O)NCCOCC(=O)N[C@H](CCCCN)C(N)=O)[C@@H](C)O
0.5 to 1 µM | CC(=O)NCC(=O)NCC(=O)NCC(=O)N[C@@H](CCC(=O)O)C(=O)N[C@@H](CS)C(=O)N[C@@H](CCC(=O)O)C(=O)N[C@@H](CC(N)=O)C(=O)N[C@@H](Cc1c[nH]c2ccccc12)C(=O)N[C@@H](CCC(=O)O)C(=O)N[C@@H](CS)C(=O)N[C@@H](Cc1ccc(O)cc1)C(=O)N[C@@H](Cc1c[nH]c2ccccc12)C(=O)N[C@@H](Cc1cnc[nH]1)C(=O)N[C@H](C(=O)N[C@@H](Cc1ccccc1)C(=O)NCC(N)=O)[C@@H](C)O (Ac-GGGECENWECYWHTFG-NH2)
6 µM | CC(=O)N[C@@H](CS)C(=O)N[C@@H](CCC(N)=O)C(=O)N[C@H](C(=O)N[C@@H](Cc1c[nH]c2ccccc12)C(=O)N[C@@H](CCC(N)=O)C(=O)N[C@@H](CS)C(=O)N[C@@H](Cc1cnc[nH]1)C(=O)N[C@@H](Cc1c[nH]c2ccccc12)C(=O)N[C@@H](CCC(C)C)C(=O)N[C@@H](CCC(=O)O)C(=O)N[C@@H](CC(N)=O)C(=O)NCC(N)=O)[C@@H](C)O
< 0.5 µM | Ac-QTWQCYWRK(Ac)NG-NH2
> 1 µM | CC(C)[C@H](NC(=O)[C@H](Cc1c[nH]c2ccccc12)NC(=O)[C@H](CC(=O)O)NC(=O)[C@H](C)NC(=O)[C@@H](N)CS)C(=O)N[C@@H](CS)C(=O)N[C@@H](Cc1ccc(O)cc1)C(=O)N[C@@H](Cc1c[nH]c2ccccc12)C(=O)N[C@@H](Cc1cnc[nH]1)C(=O)N[C@H](C(N)=O)[C@@H](C)O
